According to patent US7939499B2, “Method for increasing cardiac mass and performance” (Trustees of Dartmouth College, priority 2005, dated 2011):
Marks after values point to notes of the source that are not given here. Where no end group is shown, it is not given here.

Columns and labels:
Type in all cases: in vivo, mouse
[1] = tested on: ANF, βMHC and skeletal α-actin gene expression; test: Expression of myocyte hypertrophy markers; settings: 6 weeks after PR39 expression induction (not at 3 weeks)
Source text: (§1) To gain further insight into the nature of the hypertrophy process, expression of myocyte hypertrophy markers was examined. […] These findings are consistent with an increase in endothelial cell mass, […] an increase in cardiac size, largely driven by myocyte hypertrophy accompanied by an induction of a typical hypertrophic response.

[2] = tested on: transgenic mice with myocardial-specific expression of PR39; test: Endothelial cell mass (I131-labeled anti-PECAM antibody perfusion) and direct capillary counting in PR39 transgenic mice
Source text: (§2) To monitor PR39 expression, β-galactosidase was expressed bicistronically.
Three weeks after induction of PR39 expression in 6-8 week-old mice, a significant increase in the endothelial cell mass was observed as determined by in vivo perfusion with an I^131-labeled anti-PECAM antibody and direct capillary counting (Table 1).
(§3) Full-length porcine PR39 cDNA was inserted into a tetracycline-responsive vector system and a tetracycline transactivator was placed under transcriptional control of an α-myosin heavy chain promoter. The resulting tetracycline-responsive system was microinjected into fertilized mouse eggs. PCR analysis of genomic DNA from mouse tail tissue confirmed integration into the mouse genome. Independent transgenic lines were established and used for the analysis disclosed herein.

[3] = tested on: endothelial cells and cardiac myocytes; test: Immunocytochemical staining with anti-Ki67 antibody (proliferation); settings: after induction of PR39 expression
Source text: as §1

[4] = tested on: transgenic mice with myocardial-specific expression of PR39; test: Heart size, myocardial mass and myocyte cross-sectional area after induction of PR39 expression
Source text: as §2
Six weeks after induction of PR39 expression, a large increase in the heart size was observed that was attributable to increased ventricular wall thickness and a mild increase in the left ventricle chamber size.
as §3

[5] = tested on: transgenic mice with myocardial-specific expression of PR39; test: Echocardiographic and pressure-volume loop analysis of myocardial function
Method: as §2
To determine whether this endothelial-driven myocardial hypertrophy affected cardiac performance, echocardiographic and pressure-volume loop analysis of myocardial function was performed following induction of PR39 expression. In agreement with morphologic observations, heart expressing PR39 had somewhat larger left ventricular end-diastolic volume and end-diastolic diameter (Table 2). There was a significant enhancement of systolic performance as indicated by decreased left ventricle end-systolic volume and increases in the […], +dP/dT, maximal-generated left ventricle pressure and cardiac output (Table 2). Unexpectedly, there was also a significant improvement in diastolic function as indicated by reduced tau and −dP/dt (Table 2).
To evaluate the robustness of the observed increase in myocardial size and functional improvement, PR39 expression was shut off six weeks after its induction and the mice were re-examined three weeks later. Both the increase in the myocardial mass and improvements in the systolic and diastolic function were maintained at that time.
as §3

[6] = six weeks after induction of PR39 expression
[7] = six weeks following induction of PR39 expression
[8] = six weeks induction of PR39 expression followed by 3 weeks repression

PR39: Angiogenic proline/arginine-rich peptide; full-length porcine PR39 cDNA expressed myocardial-specifically in tetracycline-regulated transgenic mice (mature peptide SEQ ID NO:3) (RRRPRPPYLPRPRPPPFFPPRLPPRIPPGFPPRFPPRFP-NH2; listed as Sus scrofa)
ANF, βMHC and skeletal α-actin gene expression [1]: marked increase
Capillary density per gram of myocardial tissue [2, 6]: returned to values seen in control mice
Capillary Density (Capillary/50 μm^2) ([2]; three weeks after induction of PR39 expression in 6-8 week-old mice): 5.90 ± 0.12 Capillary/50 μm^2
Anti-PECAM (μg antibody/gram tissue) ([2]; three weeks after induction of PR39 expression in 6-8 week-old mice, endothelial cell mass): 0.52 ± 0.07 μg antibody/gram tissue
Proliferation of endothelial cells between myocyte bundles (anti-Ki67) [3]: increased proliferation
Proliferation of cardiac myocytes (anti-Ki67) ([3]; multiple sections): no proliferation
Increase in myocardial mass ([4]; cardiac-specific overexpression of PR39): 50%
Heart size [4, 6]: 0.15±0.01 gram
Myocyte area increase (cross-sectional area of enzymatically dispersed cardiac myocytes) [4, 6]: 30%
Heart enlargement ([4]; six weeks after induction of PR39 expression, vs non-transgenic mice): 35%
Heart size after repression of PR39 expression ([4]; six weeks induction, then 3 weeks repression of PR39 expression): remained unchanged
Increase in myocardial mass and improvements in systolic and diastolic function after shut-off ([5]; PR39 expression shut off six weeks after induction, re-examined three weeks later): maintained
Left Ventricle Mass [5, 7]: 74 ± 1.1^a mg
Left Ventricle internal dimension systolic [5, 7]: 2.28 ± 0.20^c mm
Cardiac output [5, 8]: 9046 ± 239^a μL/minute
Ejection fraction [5, 8]: 85.06 ± 0.76^a %
End diastolic pressure [5, 8]: 7.17 ± 0.17^a mmHg
End diastolic volume [5, 8]: 18.78 ± 0.31^a μL
End systolic pressure [5, 8]: 70.49 ± 0.99^b mmHg
End systolic volume [5, 8]: 3.26 ± 0.15^a μL
Maximum dP/dt [5, 8]: 8809 ± 167^a mmHg/second
Maximum pressure [5, 8]: 92.26 ± 0.54^a mmHg
Maximum volume [5, 8]: 20.15 ± 0.29^a μL
Minimum dP/dt [5, 8]: −7503 ± 123^a mmHg/second
Minimum pressure [5, 8]: 3.79 ± 0.15^a mmHg
Minimum volume [5, 8]: 2.86 ± 0.13^a μL
Stroke volume [5, 8]: 17.29 ± 0.32^a μL
Tau-w [5, 8]: 6.0 ± 0.1^a msec
